One assay concerns pERK in MKN1 cells. Kind of assay: pERK inhibition, In-Cell Western (LI-COR Odyssey), MKN1 cells. In kind it is cell-based. As to conditions: Homo sapiens. In short, it runs like this:
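MKN1 cells were exposed for about 0.5–1 h at 37 °C to nine 3-fold dilutions starting at 10 µM. Cells were then fixed in formaldehyde, permeabilised with methanol, and immunostained for pERK and GAPDH with near-infrared secondary antibodies. GAPDH-normalised pERK signal relative to vehicle gave % inhibition, from which IC50 was fitted.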

Assay [1] has as its target T1, recombinant human SOS1 polypeptide (amino acids 560-1049) (Homo sapiens, UniProt Q07889).
T1 construct: corresponding to amino acids 560-1049, expressed in E. Coli; made in house; host or cells: E. coli
T1 sequence (Q07889 560-1049): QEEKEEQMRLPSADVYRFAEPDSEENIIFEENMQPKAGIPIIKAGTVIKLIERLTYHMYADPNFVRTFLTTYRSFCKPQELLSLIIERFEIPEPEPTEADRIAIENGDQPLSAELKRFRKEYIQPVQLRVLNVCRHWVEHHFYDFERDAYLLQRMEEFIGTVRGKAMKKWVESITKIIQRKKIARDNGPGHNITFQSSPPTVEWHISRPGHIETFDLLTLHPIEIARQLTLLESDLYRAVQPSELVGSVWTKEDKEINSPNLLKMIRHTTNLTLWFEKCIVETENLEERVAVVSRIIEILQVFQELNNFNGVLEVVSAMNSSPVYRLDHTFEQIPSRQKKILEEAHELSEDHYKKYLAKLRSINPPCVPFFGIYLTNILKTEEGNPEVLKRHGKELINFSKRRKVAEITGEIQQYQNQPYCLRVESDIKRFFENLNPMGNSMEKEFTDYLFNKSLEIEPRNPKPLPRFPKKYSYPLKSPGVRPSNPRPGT
Kind of assay: HTRF displacement assay: inhibition of labeled tracer binding to SOS1.

Where [2] appears, read: MKN-1, Table B, MKN1 or H358 cells (table does not say which), 0.5-1 hour incubation, read-out: IC50 (nM), pERK inhibition.
The mark [3] stands for this setting: Table A, Morrison equation for competitive binding.
Where [4] appears, read: MKN-1, Table B1, MKN1 or H358 cells (table does not say which), 0.5-1 hour incubation, read-out: IC50 (nM), pERK inhibition.
Where [5] appears, read: Table A1, Morrison equation for competitive binding.
Setting [6] is: MKN-1, read-out: IC50 (nM), pERK inhibition.

Counter-ions that a name gives are not always drawn. Like-named read-outs stand apart in the source and are kept apart here.

Turning to `Cc1c(C#N)cccc1[C@@H](C)Nc1nnc(C)c2cc(F)c(N3CCC34CN(C)C4)cc12` [Example 4-4, (R)-3-(1-((6-fluoro-4-methyl-7-(6-methyl-1,6-diazaspiro[3.3]heptan-1-yl)phthalazin-1-yl)amino)ethyl)-2-methylbenzonitrile], the half-inhibitory concentration (IC50) with pERK in MKN1 cells (setting [2]) is 39.6 nM. In addition, the Ki in assay [1] (setting [3]) worked out at 0.892 nM.
As for `COC1(c2cc3c(N[C@H](C)c4cccc(C#N)c4C)nnc(C)c3cc2F)CCN(C)CC1` [Example P-153, (R)-3-(1-((6-fluoro-7-(4-methoxy-1-methylpiperidin-4-yl)-4-methylphthalazin-1-yl)amino)ethyl)-2-methylbenzonitrile], in the assay on pERK in MKN1 cells (setting [4]), the half-maximal inhibitory concentration (IC50) worked out at 909 nM. Also, the Ki in assay [1] (setting [5]) amounted to 16.6 nM.
With `Cc1c(C#N)cccc1[C@@H](C)Nc1nnc(C)c2cnc(N3CC4(CN(C)C4)C3)cc12` [Example 1-24, (R)-2-methyl-3-(1-((4-methyl-7-(6-methyl-2,6-diazaspiro[3.3]heptan-2-yl)pyrido[3,4-d]pyridazin-1-yl)amino)ethyl)benzonitrile], the IC50 in the assay with pERK in MKN1 cells (setting [2]) came out at 40.3 nM. In addition, the Ki in assay [1] (setting [3]) was found to be 0.353 nM.
`Cc1nnc(N[C@H](C)c2cccc(C(F)F)c2F)c2cc(N3CCC34CN(C)C4)c(F)cc12` [Example P-234, (R)-N-(1-(3-(difluoromethyl)-2-fluorophenyl)ethyl)-6-fluoro-4-methyl-7-(6-methyl-1,6-diazaspiro[3.3]heptan-1-yl)phthalazin-1-amine]: the IC50 in the assay with pERK in MKN1 cells (setting [4]) worked out at 50.2 nM. The Ki in assay [1] (setting [5]) turned out to be 0.416 nM.
`Cc1c(C#N)cccc1[C@@H](C)Nc1nnc(C)c2cc(Cl)c(N(C)C[C@H]3CCCN3C)cc12` [Example P-196, 3-((R)-1-((6-chloro-4-methyl-7-(methyl(((R)-1-methylpyrrolidin-2-yl)methyl)amino)phthalazin-1-yl)amino)ethyl)-2-methylbenzonitrile formic acid salt]: the IC50 with pERK in MKN1 cells (setting [6]) stood at 584 nM. Also, in assay [1] (setting [5]), the Ki is 5.98 nM.
For `Cc1c(C#N)cccc1[C@@H](C)Nc1nnc(C)c2cnc(N3CCn4cnnc4C3)cc12` [Example P-21, (R)-3-(1-((7-(5,6-dihydro-[1,2,4]triazolo[4,3-a]pyrazin-7(8H)-yl)-4-methylpyrido[3,4-d]pyridazin-1-yl)amino)ethyl)-2-methylbenzonitrile], in the assay on pERK in MKN1 cells (setting [4]), the IC50 stood at 2560 nM. In assay [1] (setting [5]), the inhibitory constant (Ki) came to 2.17 nM.
`Cc1c([C@@H](C)Nc2nnc(C)c3cnc(N(C)[C@H]4CCNC4)cc23)cccc1C(F)(F)F` [Example 1-64, N^7,4-dimethyl-N^1-((R)-1-(2-methyl-3-(trifluoromethyl)phenyl)ethyl)-N^7-((S)-pyrrolidin-3-yl)pyrido[3,4-d]pyridazine-1,7-diamine]: the IC50 in the assay with pERK in MKN1 cells (setting [2]) amounted to 66.3 nM. For the same compound, the Ki in assay [1] (setting [3]) is 0.246 nM.
Turning to `COC1(C)CCN(c2cc3c(N[C@H](C)c4cccc(C#N)c4C)nnc(C)c3cn2)CC1` [Example P-9, (R)-3-(1-((7-(4-methoxy-4-methylpiperidin-1-yl)-4-methylpyrido[3,4-d]pyridazin-1-yl)amino)ethyl)-2-methylbenzonitrile, formic acid salt], the half-maximal inhibitory concentration (IC50) in the assay on pERK in MKN1 cells (setting [6]) amounted to 90.2 nM. In assay [1] (setting [5]), the inhibition constant (Ki) came to 0.989 nM.
As for `Cc1c(C#N)cccc1[C@@H](C)Nc1nnc(C)c2cnc(N3CC4(CC(N(C)C)C4)C3)cc12` [Example 1-63, (R)-3-(1-((7-(6-(dimethylamino)-2-azaspiro[3.3]heptan-2-yl)-4-methylpyrido[3,4-d]pyridazin-1-yl)amino)ethyl)-2-methylbenzonitrile], the half-maximal inhibitory concentration (IC50) with pERK in MKN1 cells (setting [2]) was determined as 48.9 nM. In addition, the Ki in assay [1] (setting [3]) turned out to be 0.664 nM.
The like results for `Cc1c(C#N)cccc1[C@@H](C)Nc1nnc(C)c2cnc(N3CC[C@@H](O)C3)cc12` [Example 1-47, 3-((R)-1-((7-((R)-3-hydroxypyrrolidin-1-yl)-4-methylpyrido[3,4-d]pyridazin-1-yl)amino)ethyl)-2-methylbenzonitrile] were, in that order, 50.3 nM and 1.33 nM.
`Cc1c(C#N)cccc1[C@@H](C)Nc1nnc(N2CC(N(C)C)C2)c2cnc(N3C[C@H]4C[C@@H]3CO4)cc12` [Example P-180, 3-((R)-1-((7-((1R,4R)-2-oxa-5-azabicyclo[2.2.1]heptan-5-yl)-4-(3-(dimethylamino)azetidin-1-yl)pyrido[3,4-d]pyridazin-1-yl)amino)ethyl)-2-methylbenzonitrile]: the IC50 in the assay with pERK in MKN1 cells (setting [4]) amounted to 53.4 nM. Also, the Ki in assay [1] (setting [5]) was found to be 0.491 nM.
Turning to `CCN1C[C@H]2C[C@@H]1CN2c1cc2c(N[C@H](C)c3cccc(C#N)c3C)nnc(C)c2cn1` [Example 1-37, 3-((R)-1-((7-((1R,4R)-5-ethyl-2,5-diazabicyclo[2.2.1]heptan-2-yl)-4-methylpyrido[3,4-d]pyridazin-1-yl)amino)ethyl)-2-methylbenzonitrile], the IC50 in the assay on pERK in MKN1 cells (setting [2]) amounted to 19.7 nM. In assay [1] (setting [3]), the Ki was 1.61 nM.
With `Cc1c(C#N)cccc1[C@@H](C)Nc1nnc(C)c2cc(Cl)c(N3CCN(C)CC3)cc12` [Example 7-1, (R)-3-(1-((6-chloro-4-methyl-7-(4-methylpiperazin-1-yl)phthalazin-1-yl)amino)ethyl)-2-methylbenzonitrile], the concentration for half-maximal inhibition (IC50) with pERK in MKN1 cells (setting [2]) came out at 150 nM. For the same compound, in assay [1] (setting [3]), the Ki was found to be 1.79 nM.
`Cc1c(C#N)cccc1[C@@H](C)Nc1nnc(C)c2cnc(N3CCCCC3)cc12` [Example P-3, (R)-2-methyl-3-(1-((4-methyl-7-(piperidin-1-yl)pyrido[3,4-d]pyridazin-1-yl)amino)ethyl)benzonitrile]: the IC50 with pERK in MKN1 cells (setting [4]) is 302 nM. Also, in assay [1] (setting [5]), the Ki amounted to 2.22 nM.
With `Cc1c(C#N)cccc1[C@@H](C)Nc1nnc(C)c2cc(Cl)c(N(C)C)cc12` [Example P-195, (R)-3-(1-((6-chloro-7-(dimethylamino)-4-methylphthalazin-1-yl)amino)ethyl)-2-methylbenzonitrile formic acid salt], the IC50 in the assay with pERK in MKN1 cells (setting [6]) was found to be 7130 nM. Further, the Ki in assay [1] (setting [5]) is 154 nM.
With `Cc1c(C#N)cccc1[C@@H](C)Nc1nnc(C)c2cnc(N(C)C3CCN(C)CC3)cc12` [Example 1-40, (R)-2-methyl-3-(1-((4-methyl-7-(methyl(1-methylpiperidin-4-yl)amino)pyrido[3,4-d]pyridazin-1-yl)amino)ethyl)benzonitrile], in the assay with pERK in MKN1 cells (setting [2]), the IC50 is 45.4 nM. In addition, the Ki in assay [1] (setting [3]) stood at 0.805 nM.
`CCN1CC[C@H](N(C)c2cc3c(N[C@H](C)c4cccc(C#N)c4C)nnc(C)c3cn2)C1` [Example 1-89, 3-((R)-1-((7-(((S)-1-ethylpyrrolidin-3-yl)(methyl)amino)-4-methylpyrido[3,4-d]pyridazin-1-yl)amino)ethyl)-2-methylbenzonitrile]: the IC50 in the assay with pERK in MKN1 cells (setting [2]) turned out to be 32.6 nM. Besides, the inhibition constant (Ki) in assay [1] (setting [3]) turned out to be 1.71 nM.
In the case of `Cc1c(C#N)cccc1[C@@H](C)Nc1nnc(C)c2cnc(N3CCC4(CN(C)C4)C3)cc12` [Example 1-25, (R)-2-methyl-3-(1-((4-methyl-7-(2-methyl-2,6-diazaspiro[3.4]octan-6-yl)pyrido[3,4-d]pyridazin-1-yl)amino)ethyl)benzonitrile], the IC50 in the assay on pERK in MKN1 cells (setting [2]) was determined as 68.6 nM. For the same compound, the inhibition constant Ki in assay [1] (setting [3]) came to 0.492 nM.
In the case of `Cc1nnc(N[C@H](C)c2cccc(C(C)(F)F)c2F)c2cc(N3CCN(C)CC3)ncc12` [Example 1-109, (R)-N-(1-(3-(1,1-difluoroethyl)-2-fluorophenyl)ethyl)-4-methyl-7-(4-methylpiperazin-1-yl)pyrido[3,4-d]pyridazin-1-amine], the IC50 in the assay with pERK in MKN1 cells (setting [2]) worked out at 41.3 nM. Also, in assay [1] (setting [3]), the inhibition constant Ki came out at 0.647 nM.
For the compound `CN[C@H]1CCN(c2cc3c(N[C@H](C)c4cccc(C#N)c4C)nnc(C)c3cn2)C1` [Example 1-3, 2-methyl-3-((R)-1-((4-methyl-7-((S)-3-(methylamino)pyrrolidin-1-yl)pyrido[3,4-d]pyridazin-1-yl)amino)ethyl)benzonitrile], the IC50 with pERK in MKN1 cells (setting [2]) is 95.1 nM. Besides, in assay [1] (setting [3]), the Ki came to 1.42 nM.
For the compound `Cc1c(C#N)cccc1[C@@H](C)Nc1nnc(C)c2cc(F)c(N3CC4(COC4)C3)cc12` [Example 4-2, (R)-3-(1-((6-fluoro-4-methyl-7-(2-oxa-6-azaspiro[3.3]heptan-6-yl)phthalazin-1-yl)amino)ethyl)-2-methylbenzonitrile], the 50% inhibitory concentration (IC50) in the assay on pERK in MKN1 cells (setting [2]) was 64 nM. In addition, the Ki in assay [1] (setting [3]) came out at 5.85 nM.
`COc1cc2c(C)nnc(N[C@H](C)c3cccc(C#N)c3C)c2cc1OC` [Example 6-7, (R)-3-(1-((6,7-dimethoxy-4-methylphthalazin-1-yl)amino)ethyl)-2-methylbenzonitrile]: the IC50 with pERK in MKN1 cells (setting [2]) turned out to be 177 nM. Further, the Ki in assay [1] (setting [3]) was found to be 14.5 nM.
The matching figures for `CCN1C[C@@H]2C[C@H]1CN2c1cc2c(N[C@H](C)c3cccc(C#N)c3C)nnc(C)c2cn1` [Example 1-36, 3-((R)-1-((7-((1S,4S)-5-ethyl-2,5-diazabicyclo[2.2.1]heptan-2-yl)-4-methylpyrido[3,4-d]pyridazin-1-yl)amino)ethyl)-2-methylbenzonitrile]: 75.5 nM and 3.43 nM.

Source of the values: patent publication US20250059182A1, “SOS1 INHIBITORS” (Mirati Therapeutics, Inc., priority 2021, published 2025).
